# Laboratory results reported in PMC8795197, “Safety and activity of WX-0593 (Iruplinalkib) in patients with ALK- or ROS1-rearranged advanced non-small cell lung cancer: a phase 1 dose-escalation and dose-expansion trial” (Signal Transduction and Targeted Therapy, 2022).
# Entries after “also recorded” stand apart in the source; their conditions may differ.
# Test system: advanced NSCLC patients with ALK or ROS1 rearrangement
# Assay: Phase 1 dose-expansion phase: antitumor activity (RECIST 1.1, investigators)
# Format: in vivo, human
# Conditions: for objective response rate / intracranial objective response rate: Total; for intracranial objective response rate: Baseline measurable CNS metastasis
# From the text: Patients continued treatment until documented disease progression, unacceptable toxicity, withdrawal of consent, the start of a new anticancer treatment, death, loss of follow-up, or end of the study (whichever occurred first). Patients were permitted to continue treatment after progression if they were still experiencing clinical benefit, at the discretion of the investigator. Patients performed imaging evaluation at baseline, with computed tomography or magnetic resonance imaging of the chest, abdomen, pelvis, and brain. In the dose-escalation phase, the first efficacy evaluation was done after 3-week continuous administration of WX-0593 and every 6 weeks thereafter. […] AEs were assessed in all patients throughout this study and graded per the National Cancer Institute Common Terminology Criteria for Adverse Events version 4.03. In the dose-expansion phase, the primary endpoint was ORR assessed by investigators. Other key secondary endpoints included PFS, DCR, time to progression (TTP), DOR, intracranial response, and safety. Additionally, overall survival (OS) was assessed as a prespecified exploratory endpoint. ORR was defined as the proportion of patients who had best overall response, including CR or PR. PFS was calculated from the date of the first dose of WX-0593 to the date of documented disease progression or death (whichever occurred first). DCR was defined as the proportion of patients who had best overall response, including CR, PR, or SD, with a duration of at least 12 weeks. TTP was calculated from the date when the first dose of WX-0593 was given to first documented disease progression. […] OS was calculated from the date when the first dose of WX-0593 was administered to the date of death from any cause. Safety analysis was performed in the SS, which was comprised of all patients treated with one dose of WX-0593 and with safety data recorded. Efficacy analysis was performed in the FAS, which was defined as all patients treated with at least one dose of WX-0593. The PK analysis set included all patients treated with at least one dose of WX-0593 and with at least one evaluable PK sample. […] Descriptive statistics were carried out to summarize patients’ baseline characteristics and safety. […] All time-to-event data (PFS, TTP, DOR, and OS) and their corresponding 95% CIs were estimated by Kaplan–Meier methods. PK parameter analyses were done with Phoenix WinNonlin version 8.0. All other statistical analyses were conducted using SAS version 9.4.
# [1] = ROS1-positive patients, 120 mg (n=3)
# [2] = ROS1-positive patients, 180 mg (n=6)
# [3] = ROS1-positive patients, total (n=9)
# [4] = baseline measurable or non-measurable brain metastasis
# [5] = baseline measurable or non-measurable brain metastasis (n = 58)
# [6] = both crizotinib and other ALK TKIs
# [7] = crizotinib as the only ALK TKI treatment
smiles,measurement,setting,value
COc1cc(N2CCC3(CCN(C)CC3)CC2)ccc1Nc1ncc(Cl)c(Nc2ccccc2P(C)(C)=O)n1 [WX-0593],"DOR, median (95% CI)","ROS1-positive patients, 120 mg","NR (NR, NR)"
same,"PFS, median (95% CI)","ROS1-positive patients, 120 mg","2.76 (1.35, 2.76) mo"
same,"TTP, median (95% CI)","ROS1-positive patients, 120 mg","2.76 (1.35, 2.76) mo"
same,DCR (95% CI),[1],"66.7% (9.4%, 99.2%)"
same,ORR (95% CI),[1],"0 (0%, 70.8%)"
same,"PFS, number of events (%)",[1],3 (100%)
same,"TTP (mo), n (%)",[1],3 (100%)
same,"DOR, median (95% CI)","ROS1-positive patients, 180 mg","NR (NR, NR)"
same,"PFS, median (95% CI)","ROS1-positive patients, 180 mg","NR (1.35, NR)"
same,"TTP, median (95% CI)","ROS1-positive patients, 180 mg","NR (1.35, NR)"
same,DCR (95% CI),[2],"66.7% (22.3%, 95.7%)"
same,ORR (95% CI),[2],"66.7% (22.3%, 95.7%)"
same,"PFS, number of events (%)",[2],2 (33.3%)
same,"TTP (mo), n (%)",[2],2 (33.3%)
same,"DOR, median (95% CI)","ROS1-positive patients, total","NR (NR, NR)"
same,"PFS, median (95% CI)","ROS1-positive patients, total","2.76 (1.35, NR) mo"
same,"TTP, median (95% CI)","ROS1-positive patients, total","2.76 (1.35, NR) mo"
same,ORR (95% CI),[3],44.4%
same,"PFS, number of events (%)",[3],5 (55.6%)
same,"TTP (mo), n (%)",[3],5 (55.6%)
same,ORR,"ROS1-rearranged, crizotinib naive",80.0%
same,median PFS,"ROS1 rearrangement, crizotinib-naive (n = 5)",not reached
same,objective response rate,ALK-rearranged patients,"58.2% (53/91, 47.4-68.5%)"
same,objective response rate,"ALK-rearranged patients, ALK TKI naive","76.3% (29/38, 59.8-88.6%)"
same,objective response rate,"ALK-rearranged patients, ALK TKI naive, chemotherapy naïve","85.0% (17/20, 62.1-96.8%)"
same,objective response rate,"ALK-rearranged patients, ALK TKI naive, received chemotherapy before","66.7% (12/18, 41.0-86.7%)"
same,objective response rate,"ALK-rearranged patients, Crizotinib and other ALK TKIs","40.0% (2/5, 5.3-85.3%)"
same,objective response rate,"ALK-rearranged patients, Crizotinib only","45.7% (21/46, 30.9-61.0%)"
same,objective response rate,"ALK-rearranged patients, Other ALK TKIs","50.0% (1/2, 1.3-98.7%)"
same,objective response rate,Baseline CNS metastasis,"22.4% (13/58, 12.5-35.3%)"
same,objective response rate,"Baseline CNS metastasis, ALK TKI naive","25.0% (5/20, 8.7-49.1%)"
same,objective response rate,"Baseline CNS metastasis, Crizotinib only","21.2% (7/33, 9.0-38.9%)"
same,objective response rate,"Baseline CNS metastasis, Radiotherapy before","10.5% (2/19, 1.3-33.1%)"
same,objective response rate,"Baseline CNS metastasis, Radiotherapy naïve","28.2% (11/39, 15.0-44.9%)"
same,intracranial objective response rate,,"46.7% (7/15, 21.3-73.4%)"
same,intracranial objective response rate,ALK TKI naive,"50.0% (2/4, 6.8-93.2%)"
same,intracranial objective response rate,Crizotinib only,"50.0% (5/10, 18.7-81.3%)"
same,intracranial objective response rate,Radiotherapy before,"28.6% (2/7, 3.7-71.0%)"
same,objective response rate,Prior ALK TKI treatment: Crizotinib and other ALK TKI,"40.0% (2/5, 5.3-85.3%)"
same,objective response rate,Prior ALK TKI treatment: Crizotinib only,"42.0% (21/50, 28.2-56.8%)"
same,objective response rate,ROS1-rearranged patients,"44.4% (4/9, 13.7-78.8%)"
same,objective response rate,"ROS1-rearranged patients, Crizotinib naive","80.0% (4/5, 28.4-99.5%)"
same,objective response rate,"ROS1-rearranged patients, Received Crizotinib before","0 (0/4, 0-60.2%)"
same,objective response rate,"dose expansion phase, Prior ALK TKI treatment: ALK TKI naive","76.2% (32/42, 60.5-87.9%)"
same,"DOR, median (95% CI)","all patients, 120 mg","NR (5.52, NR)"
same,"PFS, median (95% CI)","all patients, 120 mg","NR (6.83, NR)"
same,"TTP, median (95% CI)","all patients, 120 mg","NR (6.87, NR)"
same,DCR (95% CI),"all patients, 120 mg (n=50)","82.0% (68.6%, 91.4%)"
same,"PFS, number of events (%)","all patients, 120 mg (n=50)",15 (30.0%)
same,"DOR, median (95% CI)","all patients, 180 mg","NR (5.49, NR)"
same,"PFS, median (95% CI)","all patients, 180 mg","NR (NR, NR)"
same,"TTP, median (95% CI)","all patients, 180 mg","NR (NR, NR)"
same,DCR (95% CI),"all patients, 180 mg (n=49)","85.7% (72.8%, 94.1%)"
same,"PFS, number of events (%)","all patients, 180 mg (n=49)",10 (20.4%)
same,"DOR, median (95% CI)","all patients, total","not reached (NR) (95% CI 5.52 months to NR); also recorded: NR (5.65, NR)"
same,"PFS, median (95% CI)","all patients, total","not reached (95% CI 6.93 months to NR); also recorded: NR (6.93, NR)"
same,"TTP, median (95% CI)","all patients, total","NR (6.93, NR)"
same,intracranial ORR,"baseline measurable CNS metastasis, radiotherapy before",28.6%
same,intracranial ORR,"baseline measurable CNS metastasis, radiotherapy naive",62.5%
same,intracranial ORR,baseline measurable brain metastasis,46.7%
same,intracranial ORR,"baseline measurable brain metastasis, ALK TKI naive",50%
same,intracranial ORR,"baseline measurable brain metastasis, crizotinib before",50%
same,intracranial ORR,[4],22.4%
same,median PFS,[4],not reached (95% CI 6.90 months to NR)
same,patients with intracranial PR,[5],7
same,patients with intracranial complete remission (CR),[5],6
same,DCR,[6],100%
same,ORR,[6],40.0%
same,median PFS,[6],not reached
same,DCR,[7],76.0%
same,ORR,[7],42.0%
same,median PFS,previously only crizotinib,6.83 months
